According to patent US20040097565A1, “Analgesic and antiinflammatory drugs” (priority 2001, published 2004):
Marks after values point to notes of the source that are not given here.

Key:
[1] = system: pain threshold at right rear limb plantar part of SHRSP strain male rats; assay: Pain threshold improving action in SHRSP rat (Randall & Selitto's method); assay type: in vivo; conditions: for Pain threshold (g) before administration of compound A: baseline before oral administration
Procedure: Pain Threshold Improving Action in SHRSP Rat (Easily Cerebral Apoplexy Developing Spontaneous Hypertension Rat)
SHRSP strain male rats (27 weeks old, Nihon Clea, 6 animals per group) were used. […] Measurement of a pain threshold value was performed according to a Randall & Selitto's method (Arch. Int. Pharmacodyn. Ther. 111, 409-419, 1957). Immediately after therefrom, a compound A [2-ethoxy-1-[[2′-(5-oxo-2,5-dihydro-1,2,4-oxadoazol-3-yl)biphenyl-4-yl]methyl]-1H-benzimidazole-7-carboxylic acid] was orally administered (0.5 ml/100 g, b.w.) and, one hour after, a pain threshold value was measured. Only a solvent was orally administered to a control group. Regarding the effect of a specimen, drug efficacy assessment was performed by threshold pressure of a control group and a specimen administration group.

[2] = system: carrageenin edema, right rear limb plantar part of SD strain male rats; assay: Carrageenin edema method (antiinflammatory action); assay type: in vivo, rat; conditions: 30 mg/kg oral, 1 hour before carrageenin, limb volume 3 hours after, relative to control
Procedure: Method: SD strain male rats (6 weeks old, Nihon Clea) were used at 6 animals per group. The carrageenin edema method was performed according to a method of Winter et al. (Proc. Soc. exp. Biol. Med., 111, 544-547, 1962). After a volume of a right rear limb plantar part was measured, a specimen [compound A: 2-ethoxy-1-[[2′-(5-oxo-2,5-dihydro-1,2,4-oxadiazol-3-yl)biphenyl-4-yl]methyl]-1H benzimidazole-7-carboxylic acid] was orally administered (1 ml/100 g), and water was additionally added to a total amount of 5 ml/rat. After one hour, 0.05 ml of a 1% carrageenin physiological saline solution was subcutaneously injected to induce edema. Whereby, a volume of a right rear limb plantar part was measured after 3 hours. The effect of a specimen was obtained by a difference of a limb volume between before carrageenin injection and after 3 hours, and calculating an inhibition rate (%) relative to a control group.

[3] = system: acetic acid writhing in ICR strain male mice; assay: Acetic acid writhing method (analgesic action); assay type: in vivo, mouse; conditions: 30 mg/kg oral, 30 minutes before 0.6% acetic acid i.p., counted for 20 minutes
Procedure: Acetic Acid Writhing Method
Method: ICR strain male mice (5 weeks old, Nihon Clea) were used at 10 animals per group, and a specimen [compound A: 2-ethocy-1-[[2′-(5-oxo-2,5-dihydro-1,2,4-oxadiazol-3-yl)biphenyl-4-yl]methyl]-1H-benzimidazole-7-carboxylic acid] was orally administered (0.2 ml/10 g). After 30 minutes, a 0.6% acetic acid solution was intraperitoneally injected (0.1 ml/10 g) and, immediately, mice were placed into a transparent acryl resin observation cage, a time of writhing and stretching induced for 20 minutes therefrom was counted, and an inhibition rate (%) was calculated from average times of a control group and a specimen administration group.

## CCOc1nc2cccc(C(=O)O)c2n1Cc1ccc(-c2ccccc2-c2nc(=O)o[nH]2)cc1 [Compound A, 2-Ethoxy-1-[[2′-(5-oxo-2,5-dihydro-1,2,4-oxadiazol-3-yl)biphenyl-4-yl]methyl]-1H-benzimidazole-7-carboxylic acid]
[1]; 1 mg/kg group
  Pain threshold (g) before administration of compound A: 210 g
[1]; 1 mg/kg oral
  Pain threshold (g) 1 hour after administration of compound A: 277* g
[1]; 3 mg/kg group
  Pain threshold (g) before administration of compound A: 213 g
[1]; 3 mg/kg oral
  Pain threshold (g) 1 hour after administration of compound A: 352* g
[1]; 10 mg/kg group
  Pain threshold (g) before administration of compound A: 212 g
[1]; 10 mg/kg oral
  Pain threshold (g) 1 hour after administration of compound A: 430* g
[1]; 30 mg/kg group
  Pain threshold (g) before administration of compound A: 214 g
[1]; 30 mg/kg oral
  Pain threshold (g) 1 hour after administration of compound A: 470* g
[2]
  Inhibition rate (%) of carrageenin edema: 34* %
[3]
  Inhibition rate (%) of writhing and stretching: 52* %
